From ChEMBL document CHEMBL4038308, “Lipophosphonoxins II: Design, Synthesis, and Properties of Novel Broad Spectrum Antibacterial Agents” (J Med Chem, 2017)
Active and inactive are the calls of the source.

Assays:
Assay type in all cases: functional
Bacillus subtilis [1] = experiment: Antibacterial activity against Bacillus subtilis assessed as inhibition of peptidoglycan synthesis at 10 mg/L after 50 mins by [3H]-N-acetylglucosamine incorporation assay
Bacillus subtilis [2] = experiment: Antibacterial activity against Bacillus subtilis assessed as inhibition of protein synthesis at 10 mg/L after 50 mins by [35S]-methionine incorporation assay
Bacillus subtilis [3] = experiment: Antibacterial activity against Bacillus subtilis assessed as inhibition of DNA synthesis at 10 mg/L after 50 mins by [3H]thymidine incorporation assay
Bacillus subtilis [4] = experiment: Antibacterial activity against Bacillus subtilis assessed as inhibition of plasma membrane lipids synthesis at 10 mg/L after 50 mins by [3H]-sodium acetate incorporation assay
Bacillus subtilis [5] = experiment: Antibacterial activity against Bacillus subtilis assessed as inhibition of RNA synthesis at 10 mg/L after 50 mins by [3H]-uridine incorporation assay
Bacillus subtilis [6] = experiment: Antibacterial activity against Bacillus subtilis assessed as inhibition of peptidoglycan synthesis at 2 mg/L after 50 mins by [3H]-N-acetylglucosamine incorporation assay
Bacillus subtilis [7] = experiment: Antibacterial activity against Bacillus subtilis assessed as inhibition of plasma membrane lipids synthesis at 2 mg/L after 50 mins by [3H]-sodium acetate incorporation assay
Bacillus subtilis [8] = experiment: Antibacterial activity against Bacillus subtilis assessed as inhibition of protein synthesis at 2 mg/L after 50 mins by [35S]-methionine incorporation assay
Bacillus subtilis [9] = experiment: Antibacterial activity against Bacillus subtilis assessed as inhibition of DNA synthesis at 2 mg/L after 50 mins by [3H]thymidine incorporation assay
Bacillus subtilis [10] = experiment: Antibacterial activity against Bacillus subtilis assessed as inhibition of RNA synthesis at 2 mg/L after 50 mins by [3H]-uridine incorporation assay
Bacillus subtilis [11] = experiment: Antibacterial activity against Bacillus subtilis assessed as inhibition of plasma membrane lipids synthesis at 100 mg/L after 50 mins by [3H]-sodium acetate incorporation assay
Bacillus subtilis [12] = experiment: Antibacterial activity against Bacillus subtilis assessed as inhibition of protein synthesis at 100 mg/L after 50 mins by [35S]-methionine incorporation assay
Bacillus subtilis [13] = experiment: Antibacterial activity against Bacillus subtilis assessed as inhibition of RNA synthesis at 100 mg/L after 50 mins by [3H]-uridine incorporation assay
Bacillus subtilis [14] = experiment: Antibacterial activity against Bacillus subtilis assessed as inhibition of peptidoglycan synthesis at 100 mg/L after 50 mins by [3H]-N-acetylglucosamine incorporation assay
Bacillus subtilis [15] = experiment: Antibacterial activity against Bacillus subtilis assessed as inhibition of DNA synthesis at 100 mg/L after 50 mins by [3H]thymidine incorporation assay

Measured: inhibition

O=C(N[C@H](CO)[C@H](O)c1ccc([N+](=O)[O-])cc1)C(Cl)Cl
active: Bacillus subtilis [1] | Bacillus subtilis [2] | Bacillus subtilis [3] | Bacillus subtilis [4] | Bacillus subtilis [5]

CC1(C)S[C@@H]2[C@H](NC(=O)[C@H](N)c3ccccc3)C(=O)N2[C@H]1C(=O)O
active: Bacillus subtilis [6] | Bacillus subtilis [7] | Bacillus subtilis [8] | Bacillus subtilis [9] | Bacillus subtilis [10]

C/C=C/C/C=C/CCC(=O)[C@H]1O[C@H]1C(N)=O
active: Bacillus subtilis [11] | Bacillus subtilis [12] | Bacillus subtilis [13] | Bacillus subtilis [14] | Bacillus subtilis [15]

CO[C@H]1/C=C/O[C@@]2(C)Oc3c(C)c(O)c4c(O)c(c(/C=N/N5CCN(C)CC5)c(O)c4c3C2=O)NC(=O)/C(C)=C\C=C\[C@H](C)[C@H](O)[C@@H](C)[C@@H](O)[C@@H](C)[C@H](OC(C)=O)[C@@H]1C
active: Bacillus subtilis [6] | Bacillus subtilis [7] | Bacillus subtilis [8] | Bacillus subtilis [9] | Bacillus subtilis [10]
